# Measurements taken from ChEMBL document CHEMBL5325504, “Bioactive Indole Alkaloid from Aspergillus amoenus TJ507 That Ameliorates Hepatic Ischemia/Reperfusion Injury” (J Nat Prod, 2023).
# The source made the active and inactive calls. The calls are words filed in the database; no cut-off is given here.
# How the values were obtained:
# [1] = test system: AML12; test: Cytoprotective activity against CoCl2-induced mouse AML12 cells assessed as increase in cell survival rate by CCK8 method; format: functional, cell-based
# [2] = species: Mus musculus; test: Hepatoprotective activity against ischemia-reperfusion injury mouse model assessed as reduction in TUNEL positive cells by TUNEL staining based analysis; format: functional, organism-based
# [3] = test system: Mus musculus; test: Hepatoprotective activity against ischemia-reperfusion injury mouse model assessed as reduction in AST level in serum at 10 mg/kg, ip administered once daily for 3 days; format: functional, organism-based; conditions: time 3.0 day
# [4] = test system: Mus musculus; test: Hepatoprotective activity against ischemia-reperfusion injury mouse model assessed as reduction in LDH level in serum at 10 mg/kg, ip administered once daily for 3 days; format: functional, organism-based; conditions: time 3.0 day
# [5] = species: Mus musculus; test: Hepatoprotective activity against ischemia-reperfusion injury mouse model assessed as reduction in necrocytosis by H and E staining based analysis; format: functional, organism-based
# [6] = species: Mus musculus; test: Hepatoprotective activity against ischemia-reperfusion injury mouse model assessed as reduction in translocation of HMGB1 from nucleus to cytoplasm by IHC staining based analysis; format: functional, organism-based
# [7] = species: Mus musculus; test: Hepatoprotective activity against ischemia-reperfusion injury mouse model assessed as reduction in liver ecchymosis by H and E staining based analysis; format: functional, organism-based
# [8] = species: Mus musculus; test: Hepatoprotective activity against ischemia-reperfusion injury mouse model assessed as reduction in MPO expression level by IHC staining based analysis; format: functional, organism-based
# [9] = test system: AML12; test: Cytotoxicity against mouse AML12 cells assessed as reduction in cell survival rate at by CCK8 assay; format: toxicity, cell-based
# [10] = test system: Mus musculus; test: Hepatoprotective activity against ischemia-reperfusion injury mouse model assessed as reduction in ALT level in serum at 10 mg/kg, ip administered once daily for 3 days; format: functional, organism-based; conditions: time 3.0 day
# [11] = species: Mus musculus; test: Hepatoprotective activity against ischemia-reperfusion injury mouse model assessed as reduction in leukocyte infiltration by H and E staining based analysis; format: functional, organism-based
# [12] = species: Mus musculus; test: Hepatoprotective activity against ischemia-reperfusion injury mouse model assessed as reduction in cleaved caspase-3 by IHC staining based analysis; format: functional, organism-based
# [13] = test system: AML12; test: Cytoprotective activity against CoCl2-induced mouse AML12 cells assessed as increased cell survival rate at 1.25 to 10 uM by CCK8 assay; format: functional, cell-based; conditions: dose 1.25-10 µM
smiles,measurement,setting,value
C/C=C1\NC(=O)[C@H](Cc2c[nH]c3ccccc23)N(C)C1=O,Activity,[1],inactive
C=CC(C)(C)C(=O)Nc1c(C(=O)C[C@@H]2NC(=O)[C@@H]3CCCN3C2=O)ccc(O)c1CC=C(C)C,Activity,[1],inactive
C=CC(C)(C)[C@@]1(C[C@@H]2NC(=O)[C@]3(OC)CCCN3C2=O)C(=O)Nc2c1ccc1c2C=CC(C)(C)O1,Activity,[1],inactive
C=CC(C)(C)[C@]1(C[C@@H]2NC(=O)[C@@H]3CCCN3C2=O)C(=O)Nc2c1ccc(O)c2CC=C(C)C,Activity,[1],inactive
CC1(C)C=Cc2c(ccc3c2N(O)C(=O)[C@@]32C[C@@]34NC(=O)[C@]5(CCCN5C3=O)C[C@H]4C2(C)C)O1,Activity,[1],inactive
CC1(C)C=Cc2c(ccc3c2NC(=O)[C@@]32C[C@@]34NC(=O)[C@]5(CCCN5C3=O)C[C@H]4C2(C)C)O1,Activity,[1],inactive
C=CC(C)(C)[C@]1(C[C@@H]2NC(=O)[C@]3(OC)CCCN3C2=O)C(=O)Nc2c1ccc1c2C=CC(C)(C)O1 [NOTOAMIDE Q],Activity,[2],Active
same,Activity,[3],Active
same,Activity,[1],Active
same,Activity,[4],Active
same,Activity,[5],Active
same,Activity,[6],Active
same,Activity,[7],Active
same,Activity,[8],Active
same,Activity,[9],Non-Toxic
same,Activity,[10],Active
same,Activity,[11],Active
same,Activity,[12],Active
same,Activity,[13],Active
